Patent US12668599B2, “Heterobifunctional compounds and methods of treating disease” (Halda Therapeutics OpCo, Inc., priority 2023, dated 2026)

Assays:
[1] = test system: androgen receptor WT, T878A, L702H and H875Y and BRD4 protein; experiment: Ternary complex formation in TRex293 cells with doxycycline inducible androgen receptor (AR capture / HRP-BRD4 antibody ELISA); format: cell-based; conditions: Trex293 cells engineered to express wtAR and the T878A, L702H and H875Y AR mutants, 1 hour treatment, FIG. 2
Procedure: Compound II-5 was tested for ability to form a ternary complex containing Compound II-5, androgen receptor, and bromodomain-containing protein 4 (BRD4) protein using TRex293 cells induced to express elevated levels of androgen receptor.
TRex293 cells expressing doxycycline inducible androgen receptor WT, T878A, L702H and H875Y were generated and cultured in DMEM medium supplemented with 10% heat inactivated fetal bovine serum, and 1% pen-strep (culture medium). 25,000 cells were seeded per well in 100 μL of phenol red free DMEM containing 10% CSS, 1% pen strep, and 10 ng/mL doxycycline in a clear 96-well poly-D-lysine coated plate. Plates were incubated at 37° C. Black, opaque 96-well MaxiSorp plates were coated with 50 μL of androgen receptor antibody diluted in phosphate buffered saline (PBS). The coated plates were sealed and placed at 4° C. overnight. Plates coated with androgen receptor antibody were washed three times with 200 μL 1× tris -buffered saline plus 0.1% Tween20 (TBST), then blocked with 200 μL of 3% bovine serum albumin in TBST for 1 hour at room temperature. Test compound titrations were diluted in culture medium. 100 μL of the test compound/media mixture was added to the cell plate. After treatment, plates were incubated for 1 hour. Then, cells were washed once with 250 μL 1× PBS. […] Fluorescent endpoint read was conducted on a SpectraMax plate reader.

[2] = test system: T-Rex 293 cell line SC3 cells having increased expression of androgen receptor protein due to exposure to doxycycline; experiment: Cellular growth inhibition, T-Rex 293 SC3 cells with doxycycline-induced androgen receptor (CellTiter-Glo 2.0, 72 hours); format: cell-based

COc1cc(O[C@H]2C(C)(C)[C@H](NC(=O)c3cnc(N4CCC5(CC4)CC(Oc4ccc(C6=N[C@@H](Cc7ncco7)c7nnc(C)n7-c7sc(C)c(C)c76)cc4)C5)nc3)C2(C)C)ccc1C#N [II-5, N-[(1r,3r)-3-(4-cyano-3-methoxy-phenoxy)-2,2,4,4-tetramethyl-cyclobutyl]-2-[2-[4-[(9S)-4,5,13-trimethyl-9-(oxazol-2-ylmethyl)-3-thia-1,8,11,12-tetrazatricyclo[8.3.0.0^2,6]trideca-2 (6),4,7,10,12-pentaen-7-yl]phenoxy]-7-azaspiro[3.5]nonan-7-yl]pyrimidine-5-carboxamide]
ternary complex formation between Compound II-5, androgen receptor, and BRD4 [1]: detected
Ratio of GI50's ([2]; GI50 of the top compound in the pair divided by GI50 of the lower compound, T-Rex 293 SC3 cells with doxycycline-induced androgen receptor): 1
GI50 ([2]; T-Rex 293 SC3 cells with 10 ng/ml doxycycline (increased androgen receptor expression), 72 hours, CellTiter-Glo 2.0): < 500 nM
